Paper PMC5342071, “A first generation inhibitor of human Greatwall kinase, enabled by structural and functional characterisation of a minimal kinase domain construct” (Oncotarget, 2016)

What was measured:
[1] = molecular target: T1, hGWL-KinDom (Homo sapiens, UniProt Q96GX5); test: Kinase-Glo Max luminescence kinase assay with hGWL-KinDom; type: biochemical; details: Kinase-Glo Max assay; read-out: IC50 GWL-KinDom
T1 construct: that encoded amino acids (aa) 1-194 + ‘RTFC’ + 740-879 of hGWL; GST (rhinovirus 3C-protease cleavable) (N, cleaved yes); made in house; host or cells: E. coli Rosetta2(DE3)
T1 sequence (Q96GX5 with tags, fused parts or gaps limits assumed): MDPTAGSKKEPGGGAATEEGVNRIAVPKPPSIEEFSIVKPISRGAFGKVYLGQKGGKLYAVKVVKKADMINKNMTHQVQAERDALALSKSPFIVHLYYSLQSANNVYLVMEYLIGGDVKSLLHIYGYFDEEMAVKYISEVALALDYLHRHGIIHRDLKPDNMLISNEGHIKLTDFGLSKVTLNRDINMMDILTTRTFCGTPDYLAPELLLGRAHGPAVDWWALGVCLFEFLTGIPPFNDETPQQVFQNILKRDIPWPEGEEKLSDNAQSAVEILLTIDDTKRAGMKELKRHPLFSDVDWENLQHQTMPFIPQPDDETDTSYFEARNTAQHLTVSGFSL
Procedure: Non-radioactive kinase assays were set-up by combining hGWL-KinDom (305 µM in 20 mM HEPES pH 7.5, FL 500 mM NaCl, and 0.5 mM TCEP) diluted to desired concentration or immunoprecipitated hGWL on beads with ultra-pure ATP [Promega, 25 µM] and His-tagged substrate  α-endosulfine (ENSA, 2 µM) in kinase assay buffer (50 mM Tris-HCl pH 7.5, 0.5 mM EGTA, 150 mM NaCl, 0.1% v/v NP-40 and 15 mM MgCl2). The reaction was allowed to proceed for 30 min at 37 °C or another indicated time-point after which it was stopped with either SDS loading buffer (5X buffer, including 0.25 % w/v Bromophenol blue, 0.5 M DTT (dithiothreitol), 50% v/v Glycerol, 10% v/v SDS (sodium dodecyl sulphate), and 0.25M Tris-HCl pH 6.8) or Kinase-Glo Max reagent [Promega]. Recombinant His-tagged ENSA was purified using Ni-NTA agarose [QIAGEN] from BL21 E. coli following the manufacturer’s recommended protocol. […]
(§1) All kinase assays were repeated thrice per assay condition and each point on the concentration-dependent response curves represents the mean ± […]
After stopping the above non-radioactive kinase assay with 1 volume of Kinase-Glo Max reagent the mixture was allowed to incubate for a further 15 min. To detect consumption of ATP, samples were transferred to white, flat-bottom 96-well plates [Thermo Fisher Scientific, Loughborough, UK] and luminescence was detected using a POLARstar Omega micro-plate reader [BMG Labtech GmbH, Ortenberg, Germany]. As this assay measures ATP, activity or ATP turnover was measured as the -ΔRLU. […]

[2] = molecular target: T2, hGWL^FL (Homo sapiens, UniProt Q96GX5); test: Immunoprecipitation kinase assay with Flag-tagged hGWL^FL (p-ENSA western); type: biochemical; details: for IC50: immunoprecipitated Flag-tagged hGWL^FL, read-out: IC50 GWL^FL
T2 construct: N-terminally FLAG-tagged full-length human GWL; made in house; host or cells: HEK293T cells, transfected and nocodazole-arrested; protein captured on anti-Flag M2 beads
T2 sequence (Q96GX5 1-879): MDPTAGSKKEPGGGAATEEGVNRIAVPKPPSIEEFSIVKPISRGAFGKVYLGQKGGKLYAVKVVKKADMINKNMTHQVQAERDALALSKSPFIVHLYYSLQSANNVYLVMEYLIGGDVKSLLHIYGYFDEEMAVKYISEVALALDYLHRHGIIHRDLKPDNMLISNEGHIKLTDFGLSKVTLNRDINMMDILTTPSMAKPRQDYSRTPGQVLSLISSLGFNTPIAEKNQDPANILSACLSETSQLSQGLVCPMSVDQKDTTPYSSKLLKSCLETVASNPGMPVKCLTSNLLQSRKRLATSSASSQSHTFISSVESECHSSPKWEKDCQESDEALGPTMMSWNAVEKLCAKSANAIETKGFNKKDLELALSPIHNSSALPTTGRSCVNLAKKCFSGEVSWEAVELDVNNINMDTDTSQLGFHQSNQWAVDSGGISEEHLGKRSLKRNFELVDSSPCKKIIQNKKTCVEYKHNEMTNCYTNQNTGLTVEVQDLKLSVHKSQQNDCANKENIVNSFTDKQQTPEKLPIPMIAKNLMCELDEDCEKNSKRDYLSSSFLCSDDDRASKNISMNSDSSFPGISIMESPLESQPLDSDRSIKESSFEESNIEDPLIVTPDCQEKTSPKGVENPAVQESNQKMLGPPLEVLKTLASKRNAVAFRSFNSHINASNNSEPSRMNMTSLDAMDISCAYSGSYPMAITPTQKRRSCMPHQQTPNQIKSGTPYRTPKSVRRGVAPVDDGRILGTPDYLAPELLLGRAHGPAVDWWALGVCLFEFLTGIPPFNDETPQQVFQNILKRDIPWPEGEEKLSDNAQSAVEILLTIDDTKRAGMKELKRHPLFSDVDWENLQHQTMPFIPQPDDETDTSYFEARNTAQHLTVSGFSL
Procedure: 500 mM NaCl, and 0.5 mM TCEP) diluted to desired concentration or immunoprecipitated hGWL on beads with ultra-pure ATP [Promega, 25 µM] and His-tagged substrate  α-endosulfine (ENSA, 2 µM) in kinase assay buffer (50 mM Tris-HCl pH 7.5, 0.5 mM EGTA, 150 mM NaCl, 0.1% v/v NP-40 and 15 mM MgCl2). The […]
(dithiothreitol), 50% v/v Glycerol, 10% v/v SDS (sodium dodecyl sulphate), and 0.25M Tris-HCl pH 6.8) or Kinase-Glo Max reagent [Promega]. Recombinant His-tagged ENSA was purified using Ni-NTA agarose [QIAGEN] from BL21 E. coli following the manufacturer’s recommended protocol. […]
as §1
Immunoprecipitation Kinase Assay
HEK293T cells were transfected with 10 µg of plasmid (Flag-tagged hGWLFL or GFP; pcDNA3-EGFP, Addgene, Cambridge MA, USA) using CaCl2. […]
incubated for a further 16–18 h. Cells were collected and washed in PBS-A followed by lysis on ice for 20 min in 1mL IP buffer (50 mM Tris-HCl pH 7.5, 150 mM NaCl, 10% v/v glycerol, 0.5% v/v NP-40, 1 mM EDTA supplemented with protease and phosphatase inhibitors (Complete and PhosStop; Roche Diagnostics)). Samples were then sonicated and clarified by centrifugation at 13,000 rpm for 30 min at 4°C. To capture Flag-tagged […]
hGWLFL, 100 µl of lysate was diluted 5-fold with IP buffer and combined with 3 µl anti-Flag M2 magnetic Dynabeads [Sigma-Aldrich] overnight at 4 °C. After sequential washes with IP buffer, 1:1 mix of IP and kinase assay buffers and a final wash in kinase assay buffer, the beads were then used in the kinase assay. The reaction was stopped by adding SDS loading buffer and analysed by western blot: p-ENSA and GWL levels were detected using the anti-phospho(Ser67)-ENSA and anti-MASTL(GWL, Prestige) antibodies. Activity was measured as the p-ENSA/GWL ratio and % kinase activity was normalised to the DMSO control. All kinases assays were repeated thrice per assay condition and each point on the concentration-dependent response curves represents the mean ± 1 S.D. […]

Structure (SMILES)	IC50 [1] [µM]	IC50 [2] [µM]	inhibitory ratio (IC50 GWL^FL/IC50 GWL-KinDom) ([2]; for GKI-1: EC50 hGWL^FL vs IC50 hGWL-KinDom)	EC50 ([2]; immunoprecipitated hGWL^FL, read-out: EC50 GWL^FL) [µM]
CCN(CC)Cc1ccc(Nc2nccc(-c3cnn4ncccc34)n2)cc1 [GRI-4]	3.22 ± 0.31	2.5		
Clc1ccc(Nc2cccc(-c3cn[nH]c3)c2)cc1 [GKI-1, N-(4-chlorophenyl)-3-(1H-pyrazol-4-yl)aniline]	2.5		~ 2	4.9
CN(C)CC#Cc1cccc(C(=O)c2cnn(-c3ccc(F)cc3)c2N)c1 [GRI-3]	109 ± 13.7	66		
